The structures appear in SMILES notation. Like-named read-outs stand apart in the source and are kept apart here.

The conditions of data set [1]: humans, cited from earlier work.
Data set [2] relates to human liver microsomes. Particulars: cited from earlier work.
For data set [3], the system named is human cryopreserved hepatocytes. Description: Stability in human cryopreserved hepatocytes with or without CYP1A2 inhibitors (assays 1 to 3). As to conditions: for decrease of flubendazole metabolism in the presence of the inhibitor: cryopreserved human hepatocytes, 1 µM flubendazole, over all inhibitor concentrations tested; for class of CYP1A2 inhibitor of flubendazole metabolism: human hepatocytes ex vivo. On the procedure:
(§1) In each assay, the amount of test compound remaining at each time point was analysed by LC-MS/MS.
(§2) The final incubation volume was 500 µL. […] A positive control compound, ethoxycoumarin, for CYP1A2 (as CYP1A2 substrate) was included. […] The reactions were stopped by transferring 50 µL of incubate to 100 µL acetonitrile containing internal standard at the appropriate time points (0, 5, 10, 20, 40 and 60 min). The termination plates were centrifuged at 2500 rpm at 4° C. for 30 min to precipitate the protein.
(§3) From a plot of In peak area ratio (compound peak area/internal standard peak area) against time, the gradient of the line was determined. Subsequently, half-life (t½) and intrinsic clearance (CLint) were calculated using the equations below: […]

A short description of data set [4]: in vitro. As to conditions: human, hepatocytes; for half-life at 1 µM: t½. The procedure:
as §1, §2, §3

On to `Cn1c(=O)c2c(ncn2C)n(C)c1=O` [caffeine], for which the elimination half-life is 50 h in data set [1] (with furafylline) and 5 to 7 h in data set [1] (without furafylline).
On to `CCC[S+]([O-])c1ccc2[nH]c(NC(=O)OC)nc2c1` (stereo not drawn) [Ricobendazole, albendazole sulfoxide], for which the “turnover in human liver microsomes” value in data set [2] is “low turnover”.
On to `COCCCC/C(=N\OCCN)c1ccc(C(F)(F)F)cc1` [Fluvoxamine, fluvoxamine], for which, in data set [3], the “decrease of flubendazole metabolism in the presence of the inhibitor” value is “at least 2.2 fold” and the “class of CYP1A2 inhibitor of flubendazole metabolism” value is reported as “strong (inhibits intrinsic clearance (CLint) of flubendazole in human hepatocytes ex vivo by ≥five-fold)”.
For the molecule `CCOc1ccc2ccc(=O)oc2c1`, the hepatocyte CLint at 1 µM in data set [4] (CLint) stood at 25.4 µL/min/1e6 cells. In data set [4], the half-life at 1 µM worked out at 54.5 min.
`O=c1ccc2ccc(O)cc2o1` [Umbelliferone, umbelliferone] had a CLint in data set [3] (human, hepatocytes, 1 µM) of 131±9.59 µL/min/10^6 cells. Besides, in data set [3] (human, hepatocytes, 1 µM), the t½ came to 10.5 min. Moreover, the intrinsic clearance (hepatocyte CLint) at 1 µM in data set [4] (CLint) was 136 ± 8.14 µL/min/1e6 cells; in data set [4] (intrinsic clearance), 129 ± 2.93 µL/min/1e6 cells. The molecule further gave a half-life at 1 µM in data set [4] of 10.2 min.
For `Cc1nc2c([nH]1)c(=O)n(C)c(=O)n2Cc1ccco1` [Furafylline, furafylline], in data set [3], the “decrease of flubendazole metabolism in the presence of the inhibitor” value is on record as “at least 4.2 fold” and the “class of CYP1A2 inhibitor of flubendazole metabolism” value was “strong (inhibits intrinsic clearance (CLint) of flubendazole in human hepatocytes ex vivo by ≥five-fold)”. Further, the “increase in elimination half-life of caffeine” value in data set [1] (Tarrus et al., 1987) is 7-10 fold.
